Results published in patent US20250228855A1, “PYRAZINAMIDE COMPOUNDS” (The General Hospital Corporation, priority 2022, published 2025).
Where two headings read alike, the source gives them in different places. Marks after values point to notes of the source that are not given here.

Columns and labels:
PfcProRS = PfcProRS (Plasmodium falciparum, UniProt Q8I5R7); assay: TR-FRET ligand displacement assay with tracer MAT379, PfcProRS; type: binding
P. falciparum Dd2-2D4 = assay: P. falciparum asexual blood stage growth assay, wild-type Dd2-2D4; conditions: for EC50: Plasmodium falciparum
Experimental: (§1) Asexual blood stage (ABS) P. falciparum parasites were treated with test compounds at varying concentrations for 72 h, followed by quantification of parasite growth by SYBR Green staining.
(§2) P. falciparum Asexual Blood Stage Growth Assay: This assay was performed as previously described.

[1] = test system: halofuginone-induced (HFG-induced) P. falciparum; assay: P. falciparum asexual blood stage growth assay, halofuginone-induced parasites; conditions: Plasmodium falciparum
Experimental: as §1, §2

HsProRS = target: T1, HsProRS (Homo sapiens, UniProt P07814); assay: TR-FRET ligand displacement assay with tracer MAT379, HsProRS; type: binding
T1 sequence (P07814 1007-1512 limits assumed): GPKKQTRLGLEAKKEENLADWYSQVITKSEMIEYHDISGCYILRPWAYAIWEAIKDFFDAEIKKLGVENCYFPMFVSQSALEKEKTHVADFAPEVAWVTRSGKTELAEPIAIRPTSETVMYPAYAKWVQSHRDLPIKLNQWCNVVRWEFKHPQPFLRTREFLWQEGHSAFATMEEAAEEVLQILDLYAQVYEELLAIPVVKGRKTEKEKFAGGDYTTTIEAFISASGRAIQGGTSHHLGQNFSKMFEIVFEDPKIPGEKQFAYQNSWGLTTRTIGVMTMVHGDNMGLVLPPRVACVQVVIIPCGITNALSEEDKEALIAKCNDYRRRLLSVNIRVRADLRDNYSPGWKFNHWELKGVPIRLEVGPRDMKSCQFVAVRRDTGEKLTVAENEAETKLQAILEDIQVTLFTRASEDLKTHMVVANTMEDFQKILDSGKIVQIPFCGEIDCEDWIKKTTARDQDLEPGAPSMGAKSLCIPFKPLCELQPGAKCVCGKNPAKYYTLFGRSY

[2] = PfcProRS (KD [nM]) +proline, 100 μM Pro
[3] = no proline, no ATP, read-out: PfcProRS (KD [nM]) −
[4] = DD2, 72 h, read-out: Dd2 (EC50 [nM]) Halofuginone-induced
[5] = no proline, no ATP, read-out: HsProRS (KD [nM]) −
[6] = read-out: HsProRS (KD [nM]) +proline, 100 μM Pro
[7] = DD2, 72 h, read-out: Dd2 (EC50 [nM]) wt
[8] = absence of proline, read-out: KD for PfcProRS

Sequence of PfcProRS (Q8I5R7 whole entry): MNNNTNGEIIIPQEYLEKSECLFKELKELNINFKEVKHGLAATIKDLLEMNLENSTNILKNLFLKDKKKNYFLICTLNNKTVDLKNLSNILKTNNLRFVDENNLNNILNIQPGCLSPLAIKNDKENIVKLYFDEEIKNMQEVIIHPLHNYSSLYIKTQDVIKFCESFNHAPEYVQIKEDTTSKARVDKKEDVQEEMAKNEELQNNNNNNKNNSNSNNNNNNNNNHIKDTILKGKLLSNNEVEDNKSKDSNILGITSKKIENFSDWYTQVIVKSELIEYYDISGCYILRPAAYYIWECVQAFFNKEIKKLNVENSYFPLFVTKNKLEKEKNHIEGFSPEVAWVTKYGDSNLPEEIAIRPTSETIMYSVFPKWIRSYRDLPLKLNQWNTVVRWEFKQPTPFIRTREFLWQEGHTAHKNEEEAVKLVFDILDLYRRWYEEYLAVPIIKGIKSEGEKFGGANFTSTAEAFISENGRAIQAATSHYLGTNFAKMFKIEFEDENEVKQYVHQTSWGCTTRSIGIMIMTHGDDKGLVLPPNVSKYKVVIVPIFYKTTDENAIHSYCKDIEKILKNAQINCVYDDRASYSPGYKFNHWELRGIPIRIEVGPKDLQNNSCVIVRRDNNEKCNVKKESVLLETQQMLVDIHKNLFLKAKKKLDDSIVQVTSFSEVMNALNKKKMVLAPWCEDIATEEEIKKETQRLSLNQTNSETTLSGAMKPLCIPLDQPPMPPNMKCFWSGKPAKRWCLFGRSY

Row | Compound | Kd (PfcProRS; [2]) | Kd (PfcProRS; [3]) | percent growth at 10 μM (Dd2 wt) (P. falciparum Dd2-2D4; 10 μM, compound had <50% growth inhibition) | EC50 [1, 4] | Kd (HsProRS; [5]) | Kd (HsProRS; [6]) | EC50 (P. falciparum Dd2-2D4; [7]) | Kd (HsProRS) | Kd (PfcProRS; read-out: PfcProRS (KD [nM]) +proline, 100 μM Pro) | Kd (PfcProRS; PfcProRS (KD [nM]) +ATP, 500 μM ATP) | Kd (HsProRS; HsProRS (KD [nM]) +ATP, +ATP) | Kd (PfcProRS; [8]) | EC50 (P. falciparum Dd2-2D4; DD2, read-out: EC50 against Dd2-2D4 wildtype parasites) | EC50 ([1]; read-out: EC50 in halofuginone-induced parasites) | Kd (HsProRS; absence of proline, read-out: KD for HsProRS)
1 | CC(C)(C)OC(=O)N1CCC[C@H](OC(=O)NS(=O)(=O)N2CCN(C(=O)Nc3nccnc3C(=O)NC3Cc4ccccc4C3)CC2)[C@H]1CC(=O)Cn1cnc2cc(Br)c(Cl)cc2c1=O (relative stereo) [Compound 37, tert-butyl trans-2-(3-(7-bromo-6-chloro-4-oxoquinazolin-3(4H)-yl)-2-oxopropyl)-3-((((4-((3-((2,3-dihydro-1H-inden-2-yl)carbamoyl)pyrazin-2-yl)carbamoyl)piperazin-1-yl)sulfonyl)carbamoyl)oxy)piperidine-1-carboxylate] | 175 nM | 246 nM | 59% † | 7150 nM |  |  |  |  |  |  |  |  |  |  | 
2 | O=C(NC1Cc2ccccc2C1)c1nccnc1NC(=O)C1CCC1 [Compound 20, 3-(cyclobutanecarboxamido)-N-(2,3-dihydro-1H-inden-2-yl)pyrazine-2-carboxamide] | 100 nM | 1260 nM |  | 6010 nM | 738 nM | 13.2 nM | 3740 nM |  |  |  |  |  |  |  | 
3 | CC(C)(C)OC(=O)N1CCC[C@@H](OC(=O)NS(=O)(=O)N2CCN(C(=O)Nc3nccnc3C(=O)NC3Cc4ccccc4C3)CC2)[C@@H]1CC(O)Cn1cnc2cc(Br)c(Cl)cc2c1=O (stereo partly drawn) [MAT582, tert-butyl (2S,3R)-2-(3-(7-bromo-6-chloro-4-oxoquinazolin-3(4H)-yl)-2-hydroxypropyl)-3-((((4-((3-((2,3-dihydro-1H-inden-2-yl)carbamoyl)pyrazin-2-yl)carbamoyl)piperazin-1-yl)sulfonyl)carbamoyl)oxy)piperidine-1-carboxylate] | 2740 nM | 2490 nM |  | > 10000 nM | 265 nM |  | 8660 nM | 8.42 nM |  |  |  |  |  |  | 
4 | O=C(CCCCCNC(=S)Nc1ccccc1)NC1CCN(C(=O)Nc2nccnc2C(=O)NC2Cc3ccccc3C2)CC1 [MAT482] |  | 78.3 nM |  | 5540 nM | 516 nM | 1360 nM | 2720 nM |  | 61.6 nM |  |  |  |  |  | 
5 | CC(C)(C)OC(=O)NCCCCCC(=O)NC1CCN(C(=O)Nc2nccnc2C(=O)NC2Cc3ccccc3C2)CC1 [Compound 41, tert-butyl (6-((1-((3-((2,3-dihydro-1H-inden-2-yl)carbamoyl)pyrazin-2-yl)carbamoyl)piperidin-4-yl)amino)-6-oxohexyl)carbamate] | 182 nM | 227 nM |  | 6910 nM | 139 nM | 561 nM | 2110 nM |  |  |  |  |  |  |  | 
6 | O=C(C[C@H]1NCCC[C@@H]1O)Cn1cnc2cc(Br)c(Cl)cc2c1=O [halofuginone(1), halofuginone, reference compound] | > 3000 nM | > 3000 nM |  | 19.2 nM | 1160 nM |  | 0.519 nM | 2040 nM |  | 0.503 nM | 0.225 nM |  |  |  | 
7 | O=C(NS(=O)(=O)N1CCN(C(=O)Nc2nccnc2C(=O)NC2Cc3ccccc3C2)CC1)O[C@@H]1CCCNC1 [MAT447, (R)-piperidin-3-yl ((4-((3-((2,3-dihydro-1H-inden-2-yl)carbamoyl)pyrazin-2-yl)carbamoyl)piperazin-1-yl)sulfonyl)carbamate] |  |  |  | 6990 nM |  |  | 6250 nM |  |  |  |  | 2460 nM | 6250 nM | > 10000 nM | 
8 | O=C(CCCCCNC(=O)Nc1ccccc1)NC1CCN(C(=O)Nc2nccnc2C(=O)NC2Cc3ccccc3C2)CC1 [MAT515] | 46.6 nM |  |  | 3300 nM |  |  | 381 nM | 504 nM |  |  |  | 70.4 nM |  |  | 169 nM
9 | Nc1ncnc2c1ncn2[C@@H]1O[C@H](COS(=O)(=O)NC(=O)[C@@H]2CCCN2)[C@@H](O)[C@H]1O [ProSA (25), 5′-O—[N-(L-Prolyl)-sulfamoyl]adenosine, reference compound] |  |  |  | 137 nM |  |  | 151 nM |  |  |  |  |  |  |  | 
10 | O=C(NC1Cc2ccccc2C1)c1nccnc1NC(=O)C1(O)CCCCC1 [Compound 15, N-(2,3-dihydro-1H-inden-2-yl)-3-(1-hydroxycyclohexane-1-carboxamido)pyrazine-2-carboxamide] |  |  |  | 3510 nM | 2700 nM | 21.8 nM | 1500 nM |  |  |  |  |  |  |  | 
